Laboratory results from patent US11844754B2, “Methods for treatment of Parkinson's disease” (NeuroDerm, Ltd., priority 2020, dated 2023).
Where two headings read alike, the source gives them in different places.

Tests used:
in vivo = conditions: for AUC: female, pig, in vivo, sc, 600 mg, SC treatment AUC (G1) Actual
Experimental: The objective of this study was to determine the pharmacokinetics (PK) of levodopa (LD) in domestic pigs following continuous subcutaneous (SC) infusion of a levodopa prodrug, exemplified using LD-Tyr, administered concomitantly with oral Levodopa.
Table 3 provides the LD-Tyr formulation tested in this study: […]
The study consisted of 3 dosing sessions in which 5 female pigs (Swine/Landrace×large White, ˜40-50 kg each) were treated with the LD-Tyr solution of Table 3 and/or Sinemet IR oral tablets (CD/LD 25/100 mg tablet) in a cross-over design with up to 4-day washout period between dosing sessions, as detailed in the following tables:
As presented in Tables 4 and 5 above, the study included the following three test groups: • G1—received only SC LD-Tyr (600 mg total daily dose); • G2—received only oral LD (300 mg total daily dose); and • G3—received both SC LD-Tyr (600 mg total daily dose) and oral LD (200 mg total daily dose). Pharmacokinetics Blood Collection
Blood samples for the determination of LD-Tyr (in groups 1 and 3), as well as LD and CD plasma levels (in all groups) were collected from the pigs at the following timepoints: • 0 (pre-dose), 30 min, 1 h, 2 h, 3 h, 4 h, 4.5 h, 5 h, 6 h, 7 h, 8 h, 8.5 h, 9 h, 10 h, 11 h, 13 h, 15 h 18 h following treatment initiation. In case of pump occlusion (groups 1 and 3) resulting in infusion cessation, no further blood samples will be collected. Tablets were administrated before blood collection (time 0, 4 and 8 h). Bioanalysis
Plasma samples were analyzed for concentration of LD-Tyr (groups 1 and 3), as well as LD and CD (for all groups) using a qualified LC-MS/MS analytical method.
PK parameters (at least Cmax, tmax, t1/2, AUC) for LD-Tyr, LD and CD were calculated by noncompartmental methods using appropriate software (e.g. Phoenix® WinNonlin®). Individual and mean was calculated for quantitative parameters.
The LD exposure obtained from the SC infusion is considered to be the baseline.

[1] = Plasma exposure of LD and CD after SC infusion, oral IR tablet, and SC + oral coadministration (crossover, Example 1); type: in vivo, healthy subjects (human); conditions: for 1. Treatment A AUC (0-8) × 0.853* / AUC(0-t): human; for 1. Treatment A AUC (0-8) × 0.853*: sc
Source text: A test was run in order to assess the plasma exposure of levodopa (LD) following the coadministration of LD and carbidopa (CD) in both subcutaneous (SC) and oral administrations. Accordingly, results obtained from a combined SC+oral administration were compared to results obtained from SC administration alone and from oral administration alone. An additive plasma exposure and PK profile was expected, i.e., it was expected that the SC+oral coadministration would provide results equal to the additive results of the SC and oral administrations, when each was administered separately.
16 healthy subjects (18-50 years) were treated in a crossover manner, i.e., sequentially, with a washout period of 6 days between the following two treatments:
Treatment A: A total dose of 180/22.5 mg LD/CD (formulation A) was administered by SC infusion over the course of 8 hours, at a steady infusion rate.
Treatment B: An immediate release (IR) tablet of 100/25 mg LD/CD was administered orally at time 0 h.
Following a 32 hour washout period, the same 16 healthy subjects were administered with LC/CD both orally and subcutaneously according to the following treatment:
Treatment C: A dose of 153.6/19.2 LD/CD (formulation A) was administered by SC infusion over the course of 8 hours, at a steady infusion rate, combined with a single co-administration of an oral IR LD/CD 100/25 mg tablet, 4 hours after the initiation of the infusion. Total LD/CD dose: 253.6/44.2 mg.
Blood samples were collected at the following time points:
Treatment A: 0 (prior to treatment initiation), 0.5 h, 1 h, 2 h, 3 h, 4 h, 5 h, 5.5 h, 6 h, 7 h, 8 h (prior to the end of the infusion).
Treatment B: 0 (prior to treatment initiation), 0.5 h, 1 h, 2 h, 3 h, 4 h.
The normalized AUC0-8 of LD and CD of Treatment C, resulting from the combined SC and oral treatment, as described above, was calculated and compared to the sum of the normalized LD and CD AUCs obtained from Treatment A (AUC0-8 resulting from 8 h SC infusion) and Treatment B (AUC0-4 resulting from one IR oral tablet).

[2] = Dose proportionality of SC LD/CD, clinical trial ND0612-001 (Example 2a); type: in vivo, healthy male subjects (human); conditions: 24 hour continuous SC infusion of LD (6% w/w)/CD (1.4% w/w) at 80, 120, 160, 200, 240 μl/h
Experimental: Subjects were administered with a composition comprising LD (6% w/w)/CD (1.4% w/w) by way of a 24 hour continuous infusion at varying infusion rates: • Group 1: 80 μl/h • Group 2: 120 μl/h • Group 3: 160 μl/h • Group 4: 200 μl/h • Group 5: 240 μl/h Several PK parameters were derived for both LD and CD in the dose proportionality assessment, including AUC (hr*ng/mL), Cmax (ng/mL), C15 (ng/mL), and C24 (ng/mL).

[3] = Plasma carbidopa Cmax after SC administration of several carbidopa doses, clinical trial ND0612-005a and ND0612-005b (Example 2b); type: in vivo, subjects (human); conditions: SC over 24 hours; 60 mg/ml levodopa with 7.5, 6 or 4 mg/ml carbidopa; 17.9, 26.9, 33.6 mg/24 h carbidopa
Experimental: In a separate clinical trial (ND0612-005a and ND0612-005b, open label design studies), the plasma carbidopa levels were tested in view of the subcutaneous administration of several carbidopa doses. Three formulations, comprising 60 mg/ml levodopa and (a) 7.5 mg/ml; (b) 6 mg/ml; or 4 mg/ml of carbidopa, were administered to three groups of subjects over the course of 24 hours, providing a total of 17.9 mg/24 h carbidopa to each subject in the first group, 26.9 mg/24 h carbidopa to each subject in the second group and 33.6 mg/24 h carbidopa to each subject in the third group.

| Structure (SMILES) | AUC (in vivo; Landrace x large White) | AUC (in vivo; plasma LD AUC, pigs, SC LD-Tyr/CD 600/26 mg over 8 hrs only, individual animals) | increase of LD plasma exposure by oral add-ons on top of SC administration, versus predicted (average) (in vivo; pigs, SC LD-Tyr/CD + oral LD/CD) | 1. Treatment A AUC (0-8) × 0.853* ([1]; in vivo) | AUC(0-t) ([1]; in vivo, plasma LD, formulation A 153.6/19.2 LD/CD SC infusion over 8 h + oral IR LD/CD 100/25 mg tablet at 4 h, individual subjects, read-out: 4. Treatment C AUC (0-8) [Observed]) | AUC(0-t) ([1]; in vivo, plasma LD, formulation A 180/22.5 mg LD/CD SC infusion over 8 h, AUC multiplied by 0.853 to equal SC dose of Treatment C, individual subjects, read-out: 1. Treatment A AUC (0-8) × 0.853*) | AUC(0-t) ([1]; in vivo, plasma LD, oral IR tablet 100/25 mg LD/CD at 0 h, individual subjects, read-out: 2. Treatment B AUC (0-4)) | AUC(0-t) ([1]; plasma LD, formulation A 180/22.5 mg LD/CD SC infusion over 8 h, AUC multiplied by 0.853 to equal SC dose of Treatment C, individual subjects, read-out: 1. Treatment A AUC (0-8) × 0.853*) | Observed (C) vs. Additive Ratio ([1]; in vivo) | 3. Combined 1 + 2 [Estimated] ([1]; plasma LD, sum of normalized Treatment A and Treatment B AUCs, individual subjects) | dose proportionality of PK parameters (AUC, Cmax, C15, C24) [2] | AUC(0-t) ([1]; in vivo, plasma CD, formulation A 153.6/19.2 LD/CD SC infusion over 8 h + oral IR LD/CD 100/25 mg tablet at 4 h, individual subjects, read-out: 4. Treatment C AUC (0-8) [Observed]) | AUC(0-t) ([1]; in vivo, plasma CD, formulation A 180/22.5 mg LD/CD SC infusion over 8 h, AUC multiplied by 0.853, individual subjects, read-out: 1. Treatment A AUC (0-8) × 0.853*) | AUC(0-t) ([1]; in vivo, plasma CD, oral IR tablet 100/25 mg LD/CD at 0 h, individual subjects, read-out: 2. Treatment B AUC (0-4)) | dose proportionality of carbidopa Cmax [3] |
| --- | --- | --- | --- | --- | --- | --- | --- | --- | --- | --- | --- | --- | --- | --- | --- |
| N[C@@H](Cc1ccc(O)c(O)c1)C(=O)O [LD, L-3,4-dihydroxyphenylalanine] | 17600 ng·h/mL | 18000 ng·h/mL | over 50% | 2412 | 4770 ng·h/mL | 2310 ng·h/mL | 1420 ng·h/mL | 3090 ng·h/mL | higher than expected | 3087 | demonstrated dose proportionality |  |  |  |  |
| C[C@@](Cc1ccc(O)c(O)c1)(NN)C(=O)O [CD, carbidopa] |  |  |  | 900 |  |  |  |  | lower than expected |  | demonstrated dose proportionality | 1050 ng·h/mL | 942 ng·h/mL | 322 ng·h/mL | clear dose proportionality |
